Laboratory results: patent US9062066B2, “Anti-inflammatory compound having inhibitory activity against multiple tyrosine kinases and pharmaceutical composition containing same” (KOREA INSTITUTE OF SCIENCE AND TECHNOLOGY, priority 2010, dated 2015)
Where two headings read alike, the source gives them in different places.

Legend:
[1] = system: oxazolone-induced skin inflammation of Balb/C mouse ears; assay: mouse skin inflammatory model induced by oxazolone (ear thickness); format: in vivo; conditions: 20 ul of 0.1% compound topical on ear, 36 hours after oxazolone
Description: The compounds of the present invention were evaluated for their effective anti-inflammatory activity using a skin inflammatory animal model of 8 weeks old Balb/C mouse ears induced by oxazolone. […] After 4 days, the thickness of ear was measured using a caliper for the thickness value of ear before the induction of inflammation. […] After 36 hours, the thickness of ear was measured for the increased thickness induced by inflammation. […] The average value was obtained in each group (n=4).

c-Src tyrosine kinase = c-Src tyrosine kinase (Homo sapiens (Human), UniProt P12931); assay: in vitro c-Src tyrosine kinase inhibition (32P-ATP, poly(D4Y)n substrate); format: biochemical; conditions: read-out: % inhibition against c-Src
Chain of c-Src tyrosine kinase (P12931 whole entry, looked up): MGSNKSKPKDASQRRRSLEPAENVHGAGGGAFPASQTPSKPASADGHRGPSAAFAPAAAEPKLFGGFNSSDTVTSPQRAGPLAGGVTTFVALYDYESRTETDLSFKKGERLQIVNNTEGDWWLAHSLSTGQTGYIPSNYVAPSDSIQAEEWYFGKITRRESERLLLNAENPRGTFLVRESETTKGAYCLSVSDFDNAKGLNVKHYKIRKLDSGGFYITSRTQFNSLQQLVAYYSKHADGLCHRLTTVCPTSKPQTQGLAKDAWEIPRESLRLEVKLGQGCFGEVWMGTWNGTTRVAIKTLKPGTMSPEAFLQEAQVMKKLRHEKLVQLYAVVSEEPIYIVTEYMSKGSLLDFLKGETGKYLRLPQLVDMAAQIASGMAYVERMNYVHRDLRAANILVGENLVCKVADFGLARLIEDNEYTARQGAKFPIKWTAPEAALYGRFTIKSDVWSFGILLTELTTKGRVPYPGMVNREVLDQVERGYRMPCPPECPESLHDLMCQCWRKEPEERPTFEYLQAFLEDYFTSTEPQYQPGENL

[2] = system: TNF-α synthesis in J744A.1 macrophages; assay: inhibition of TNF-α synthesis in LPS-activated macrophages (ELISA); format: cell-based; conditions: Macrophage, read-out: Inhibition (%) of TNF-α synthesis
Fgr tyrosine kinase = Fgr tyrosine kinase (Homo sapiens (Human), UniProt P09769); assay: in vitro Fgr tyrosine kinase inhibition; format: biochemical; conditions: read-out: % inhibition against Fgr
Chain of Fgr tyrosine kinase (P09769 whole entry, the tested form may be a part): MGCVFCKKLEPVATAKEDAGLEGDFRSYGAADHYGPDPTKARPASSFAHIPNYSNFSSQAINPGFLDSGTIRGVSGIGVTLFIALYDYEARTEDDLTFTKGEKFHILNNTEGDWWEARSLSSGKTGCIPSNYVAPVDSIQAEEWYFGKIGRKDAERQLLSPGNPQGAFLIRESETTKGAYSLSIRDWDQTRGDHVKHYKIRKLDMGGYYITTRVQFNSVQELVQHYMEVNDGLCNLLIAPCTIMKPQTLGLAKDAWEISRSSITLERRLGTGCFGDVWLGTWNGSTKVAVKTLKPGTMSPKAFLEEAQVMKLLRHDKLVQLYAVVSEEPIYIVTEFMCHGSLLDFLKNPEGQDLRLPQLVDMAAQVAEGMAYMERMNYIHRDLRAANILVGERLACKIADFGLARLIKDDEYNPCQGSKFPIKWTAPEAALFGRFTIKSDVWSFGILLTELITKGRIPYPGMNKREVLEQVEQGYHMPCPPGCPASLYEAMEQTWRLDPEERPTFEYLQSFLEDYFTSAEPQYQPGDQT

DDR1 tyrosine kinase = DDR1 tyrosine kinase (Homo sapiens (Human), UniProt Q08345); assay: in vitro DDR1 tyrosine kinase inhibition (GST-fused kinase domain); format: biochemical; conditions: read-out: % inhibition against DDR1
Chain of DDR1 tyrosine kinase (Q08345 610-905): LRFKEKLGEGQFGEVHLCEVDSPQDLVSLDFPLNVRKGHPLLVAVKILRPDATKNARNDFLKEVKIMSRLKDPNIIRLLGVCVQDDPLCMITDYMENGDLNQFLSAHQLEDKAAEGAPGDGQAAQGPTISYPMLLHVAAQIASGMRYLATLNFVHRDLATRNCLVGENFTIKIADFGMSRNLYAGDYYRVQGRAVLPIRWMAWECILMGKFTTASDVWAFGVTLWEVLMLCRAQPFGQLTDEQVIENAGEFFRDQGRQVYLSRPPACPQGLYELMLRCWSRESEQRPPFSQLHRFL

[3] = system: α-smooth muscle actin protein expression in skin fibroblast cells; assay: inhibition of α-smooth muscle actin expression in fibroblast activated by type I collagen and TGF-β1 (western blotting); format: cell-based, Balb/C mouse; conditions: Mus musculus, read-out: Inhibition (%) of α-smooth muscle actin increase
Description: When fibroblast, […] alpha smooth muscle cells are converted to myofibroblast by activation, one of characteristic features is that α-smooth muscle actin protein expression is increased. Also myoblast cells with the increased α-smooth muscle actin expression have a character of an increased migration. These phenomena appear together with the activation of inflammatory cells and the activated myoblast-type cells are known to contribute directly to the pathology of inflammatory diseases. […] In this experiment, the expression level of alpha smooth muscle actin can be quantificated by measuring the density of α-smooth muscle actin protein band with densitometer after developing the X-ray film of chemiluminescence signal in western blotting experiment.

Lyn tyrosine kinase = Lyn tyrosine kinase (Homo sapiens (Human), UniProt P07948); assay: in vitro Lyn tyrosine kinase inhibition; format: biochemical; conditions: read-out: % inhibition against Lyn
Chain of Lyn tyrosine kinase (P07948 whole entry): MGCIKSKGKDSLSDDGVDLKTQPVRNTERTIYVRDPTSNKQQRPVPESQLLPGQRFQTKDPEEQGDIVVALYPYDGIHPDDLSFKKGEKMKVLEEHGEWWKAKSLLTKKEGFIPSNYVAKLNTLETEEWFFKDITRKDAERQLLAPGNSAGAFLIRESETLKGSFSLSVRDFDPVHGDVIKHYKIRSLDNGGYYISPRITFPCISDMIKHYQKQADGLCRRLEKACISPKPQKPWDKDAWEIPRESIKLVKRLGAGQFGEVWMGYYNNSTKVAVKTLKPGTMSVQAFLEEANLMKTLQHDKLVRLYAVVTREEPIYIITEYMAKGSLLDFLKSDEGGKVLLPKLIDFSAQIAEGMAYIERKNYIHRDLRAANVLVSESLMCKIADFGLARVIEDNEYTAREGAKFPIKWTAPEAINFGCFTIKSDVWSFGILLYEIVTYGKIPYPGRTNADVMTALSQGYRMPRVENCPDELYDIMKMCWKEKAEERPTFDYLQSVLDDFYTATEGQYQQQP

Hck tyrosine kinase = Hck tyrosine kinase (Homo sapiens (Human), UniProt P08631); assay: in vitro Hck tyrosine kinase inhibition; format: biochemical; conditions: read-out: % inhibition against Hck
Chain of Hck tyrosine kinase (P08631 whole entry): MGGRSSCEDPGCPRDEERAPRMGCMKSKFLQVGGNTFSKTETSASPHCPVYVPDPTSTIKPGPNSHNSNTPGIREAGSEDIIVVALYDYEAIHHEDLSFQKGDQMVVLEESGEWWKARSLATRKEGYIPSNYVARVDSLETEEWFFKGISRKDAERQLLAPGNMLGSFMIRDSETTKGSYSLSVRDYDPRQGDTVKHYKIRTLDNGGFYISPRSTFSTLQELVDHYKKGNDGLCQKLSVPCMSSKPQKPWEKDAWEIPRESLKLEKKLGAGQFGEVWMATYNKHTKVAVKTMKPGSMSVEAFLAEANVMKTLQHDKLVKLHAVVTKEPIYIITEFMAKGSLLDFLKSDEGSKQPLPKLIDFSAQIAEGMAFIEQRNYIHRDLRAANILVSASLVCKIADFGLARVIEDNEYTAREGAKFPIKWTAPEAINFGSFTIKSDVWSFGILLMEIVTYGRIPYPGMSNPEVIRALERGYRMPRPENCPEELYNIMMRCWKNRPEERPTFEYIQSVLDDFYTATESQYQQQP

mouse skin fibroblast = assay: inhibition of migration of activated fibroblast (scratch wound); format: cell-based; conditions: read-out: Inhibition (%) of migration of activated fibroblast
Description: The straight line of regular width was made using a micro pipette tip for a scratch wound on the mono-layer culture, and then the culture was exchanged to DMEM medium and incubated with 10 ng/ml of TGF-β1 in cell culture incubator of 37° C. for 24 hours. The cultured cells were fixed using formalin and stained with crystal violet. Photo-pictures were taken at 100× magnification in five location selected randomly in the scratched wound site of each stained culture dish and then the number of the cells moved into the scratched wound area was counted and averaged.

[4] = system: NO synthesis in J744A.1 macrophage; assay: inhibition of nitric oxide (NO) synthesis in LPS-activated macrophages (Griess reagent); format: cell-based; conditions: read-out: Inhibition (%) of NO synthesis
DDR2 tyrosine kinase = DDR2 tyrosine kinase (Homo sapiens (Human), UniProt Q16832); assay: in vitro DDR2 tyrosine kinase inhibition (GST-fused kinase domain); format: biochemical; conditions: read-out: % inhibition against DDR2
Chain of DDR2 tyrosine kinase (Q16832 563-849): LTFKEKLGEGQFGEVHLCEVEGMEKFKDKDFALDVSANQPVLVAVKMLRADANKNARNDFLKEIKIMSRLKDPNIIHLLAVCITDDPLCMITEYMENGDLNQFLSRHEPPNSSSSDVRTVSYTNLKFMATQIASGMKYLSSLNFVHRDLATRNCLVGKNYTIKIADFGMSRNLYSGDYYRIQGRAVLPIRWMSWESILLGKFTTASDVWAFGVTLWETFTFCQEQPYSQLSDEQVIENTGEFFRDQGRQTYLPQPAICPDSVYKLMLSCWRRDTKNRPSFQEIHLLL

[5] = 10 μM compound, 100 ng/ml LPS, 6 hours
[6] = 0.5 uM compound, 10 ng/ml TGF-β1, 48 hours, type I collagen
[7] = 0.5 uM compound, 10 ng/ml TGF-β1, 24 hours

SMILES	Inhibition (%) of increase of ear thickness [1]	inhibition at 1 µM (c-Src tyrosine kinase; 1 uM compound)	inhibition at 10 µM [2, 5]	inhibition at 1 µM (Fgr tyrosine kinase; 1 uM compound)	inhibition at 1 µM (DDR1 tyrosine kinase; 1 uM compound)	inhibition at 0.5 µM [3, 6]	inhibition at 1 µM (Lyn tyrosine kinase; 1 uM compound)	inhibition at 1 µM (Hck tyrosine kinase; 1 uM compound)	inhibition at 0.5 µM (mouse skin fibroblast; [7])	inhibition at 10 µM ([4]; 10 μM compound, LPS, 24 hours)	inhibition at 1 µM (DDR2 tyrosine kinase; 1 uM compound)	other results
Cc1cc2cc(Nc3ccnc4cc(C(=O)N5CC[C@@H](O)C5)sc34)ccc2n1C(=O)NC1CC1 [Control compound 1, 5-[2-(3R-hydroxy-pyrrolidine-1-carbonyl)-thieno[3,2-b]pyridine-7-ylamino]-2-methyl-indole-1-carboxyacid cycloprophylamide, reference compound]	3%											inhibition at 1 µM (c-Src tyrosine kinase): < 20%; inhibition at 10 µM ([2]; 6 h): 16%; inhibition at 1 µM (Fgr tyrosine kinase): < 20%; inhibition at 1 µM (DDR1 tyrosine kinase): < 20%; inhibition at 0.5 µM ([3]; 48 h): 16%; inhibition at 1 µM (Lyn tyrosine kinase): < 20%; inhibition at 1 µM (Hck tyrosine kinase): < 20%; inhibition at 0.5 µM (mouse skin fibroblast; 24 h): 17%; inhibition at 10 µM ([4]; 24 h): 32%; inhibition at 1 µM (DDR2 tyrosine kinase): < 20%
Cl.Oc1cccc(Nc2ncnc3cc(-c4ccc(CN5CCCC5)cc4)sc23)c1 [LCB 03-0034, 3-(6-(4-(pyrrolidin-1-ylmethyl)phenyl)thieno[3,2-d]pyrimidin-4-ylamino)phenol]	29%	> 80%	75%	> 80%	> 80%	67%	> 80%	> 70%	32%	90%	> 80%	
Oc1cccc(Nc2ccnc3cc(-c4ccc(CN5CCNCC5)cc4)sc23)c1 [LCB 03-0098, 3-(2-(4-(piperazin-1-ylmethyl)phenyl)thieno[3,2-b]pyridin-7-ylamino)phenol]		> 30%		> 30%	> 80%	51%	> 30%	> 30%	34%		> 80%	
CN1CCN(Cc2ccc(-c3cc4ncnc(Nc5cccc(O)c5)c4s3)cc2)CC1 [LCB 03-0036, 3-(6-(4-((4-methylpiperazin-1-yl)methyl)phenyl)thieno[3,2-d]pyrimidin-4-ylamino)phenol]	28%	> 80%	61%	> 80%	> 80%	63%	> 80%	> 80%	39%	81%	> 80%	
COC[C@@H]1CCCN1C(=O)c1cc2nccc(Nc3ccc4c(c3)cc(C)n4C(=O)NC3CC3)c2s1 [Control compound 2, 5-(2-[(S)-2-(methoxymethyl)pyrrolidine-1-carbonyl]thieno[3,2-b]pyridine-7-ylamino)-2-methylindole-1-carboxyacid cycloprophylamide, reference compound]		< 20%	39%	< 20%	< 20%	22%	< 20%	< 20%	14%	45%	< 20%	
CC1CCN(Cc2ccc(-c3cc4ncnc(Nc5cccc(O)c5)c4s3)cc2)CC1 [LCB 03-0058, 3-(6-(4-((4-methylpiperidin-1-yl)methyl)phenyl)thieno[3,2-d]pyrimidin-4-ylamino)phenol]		> 40%	58%	> 40%	> 80%		> 40%	> 40%		80%	> 80%	
O=C(c1cccc(-c2cc3ncnc(Nc4cccc(O)c4)c3s2)c1)N1CCCC1 [LCB 03-0053, (3-(4-(3-hydroxyphenylamino)thieno[3,2-d]pyrimidin-6-yl)phenyl)(pyrrolidin-1-yl)methanone]		> 70%	83%	> 70%	> 80%		> 70%	> 70%		94%	> 80%	
CCNCc1ccc(-c2cc3nccc(Nc4cccc(O)c4)c3s2)cc1 [LCB 03-0099, 3-(2-(4-((ethylamino)methyl)phenyl)thieno[3,2-b]pyridin-7-ylamino)phenol]		> 30%		> 30%	> 80%	39%	> 30%	> 30%	29%		> 80%	
Cl.Oc1cccc(Nc2ncnc3cc(-c4ccc(CN5CCC(O)C5)cc4)sc23)c1 (stereo not shown) [LCB 03-0072, 1-(4-(4-(3-hydroxyphenylamino)thieno[3,2-d]pyrimidin-6-yl)benzyl)pyrrolidin-3-ol]	48%		59%		> 80%	39%			27%	76%	> 80%	
Oc1cccc(Nc2ncnc3cc(-c4ccco4)sc23)c1 [LCB 03-0038, 3-(6-(furan-2-yl)thieno[3,2-d]pyrimidin-4-ylamino)phenol]		> 60%	85%	> 50%	> 70%		> 60%	> 50%		88%	> 70%	
CCNCc1ccc(-c2cc3ncnc(Nc4cccc(O)c4)c3s2)s1 [LCB 03-0095, 3-(6-(5-((ethylamino)methyl)thiophene-2-yl)thieno[3,2-d]pyrimidin-4-ylamino)phenol]	43%	> 60%		> 60%	> 80%	37%	> 60%	> 50%	23%		> 80%	inhibition at 10 µM ([4]; 24 h): 59%
O=C(Cc1ccc(-c2cc3ncnc(Nc4cccc(O)c4)c3s2)cc1)N1CCCC1 [LCB 03-0049, 2-(4-(4-(3-hydroxyphenylamino)thieno[3,2-d]pyrimidin-6-yl)phenyl)-1-(pyrrolidin-1-yl)ethanone]		> 40%	57%	> 40%	> 80%		> 40%	> 40%		88%	> 80%	
Oc1cccc(Nc2ccnc3cc(-c4ccc(CN5CCCCC5)cc4)sc23)c1 [LCB 03-0097, 3-(2-(4-(piperidin-1-ylmethyl)phenyl)thieno[3,2-b]pyridin-7-ylamino)phenol]		> 30%		> 30%	> 80%	45%	> 30%	> 30%	34%		> 80%	
Oc1cccc(Nc2ncnc3cc(-c4ccccc4)sc23)c1 [LCB 03-0008, 3-(6-phenylthieno[3,2-d]pyrimidin-4-ylamino)phenol]		> 70%	67%	> 70%	> 70%		> 70%	> 70%		87%	> 70%	
